We go through 26 compounds from patent US9115143B2, “Substituted indole derivatives as gamma secretase modulators” (Janssen Pharmaceuticals, Inc., priority 2011, dated 2015).

In one data set the test system is Aβ42. Description: Screening for γ-secretase-modulating activity: Aβ42 in supernatant of SKNBE2 cells carrying hAPP 695 wild type (Alphalisa). In kind it is cell-based, human. The conditions noted are these: overnight incubation, Alphalisa on supernatant. The gist of the method:
(§1)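 SKNBE2 human neuroblastoma cells expressing wild-type hAPP 695 (10^4/well) were incubated overnight at 37 °C, 5% CO2 with compound at several concentrations. Supernatant Aβ42 and Aβtotal measured by AlphaLISA sandwich immunoassays; IC50 from 4-parameter fit of percent of untreated control versus log concentration.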
(In general: Alpha assays give light when donor and acceptor beads are brought close together.)

The subject of a further data set is Aβtotal. As to the kind of experiment: Screening for γ-secretase-modulating activity: Aβtotal in supernatant of SKNBE2 cells carrying hAPP 695 wild type (Alphalisa). In kind it is cell-based, human. The following applies: overnight incubation, Alphalisa on supernatant. The gist of the method:
as §1

Where [1] appears, read: Homo sapiens, SKNBE2, SKNBE2 human neuroblastoma cells carrying hAPP 695 wild type.
The mark [2] stands for this setting: SKNBE2 human neuroblastoma cells carrying hAPP 695 wild type.

For the compound `N#Cc1ccc2[nH]c(-c3nc4n(n3)CCCC4c3cc(C(F)(F)F)ccc3F)cc2c1` (stereo not drawn) [Compound 21, 2-[8-[2-fluoro-5-(trifluoromethyl)phenyl]-5,6,7,8-tetrahydro[1,2,4]triazolo[1,5-a]pyridin-2-yl]-1H-indole-5-carbonitrile], the melting point – broadly, the temperature, or range, at which the solid turns liquid – came out at 184.3 °C. In the data set with Aβ42 (setting [1]), the IC50 (usually the concentration needed to halve the response being measured) is 355 nM. Also, the half-maximal inhibitory concentration (IC50) with Aβtotal (setting [1]) is > 10000 nM.

Compound `Cc1c(F)cccc1C1OCCn2nc(-c3cc4cc(C#N)ccc4[nH]3)nc21` (stereo not drawn) [Compound 1, 2-[8-(3-fluoro-2-methylphenyl)-5,6-dihydro-8H-[1,2,4]triazolo[5,1-c][1,4]oxazin-2-yl]-1H-indole-5-carbonitrile] came in with a melting point of 225.2 °C. Besides, 295 nM corresponded to half-maximal inhibition in the data set with Aβ42 (setting [1]) (IC50). Besides, the IC50 in the data set on Aβtotal (setting [1]) is > 10000 nM.

On to `COc1c(C#N)ccc2[nH]c(-c3cn4c(n3)C(c3c(F)cccc3C(F)(F)F)OCC4)cc12` (stereo not drawn) [Compound 152, 2-[8-[2-fluoro-6-(trifluoromethyl)phenyl]-5,6-dihydro-8H-imidazo[2,1-c][1,4]oxazin-2-yl]-4-methoxy-1H-indole-5-carbonitrile], for which the IC50 was 3800 nM in the data set with Aβ42 (setting [2]) and > 10000 nM with Aβtotal (setting [2]).

Consider `COc1ccccc1C1CCCn2nc(-c3cc4cc(-n5cnc(C)c5)ccc4[nH]3)nc21` (single isomer, unassigned) [Compound 80, 5,6,7,8-tetrahydro-8-(2-methoxyphenyl)-2-[5-(4-methyl-1H-imidazol-1-yl)-1H-indol-2-yl]-[1,2,4]triazolo[1,5-a]pyridine], for which the half-inhibitory concentration (IC50) in the data set on Aβ42 (setting [2]) was 468 nM; in the data set with Aβtotal (setting [1]), > 10000 nM.

Turning to `Cc1cc(-c2ccc3[nH]c(-c4nc5n(n4)CCCC5c4ccc(F)cc4C)nc3c2)ccn1` (single isomer, unassigned) [Compound 175, 8-(4-fluoro-2-methylphenyl)-5,6,7,8-tetrahydro-2-[5-(2-methyl-4-pyridinyl)-1H-benzimidazol-2-yl]-[1,2,4]triazolo[1,5-a]pyridine], the IC50 in the data set on Aβ42 (setting [2]) is 28 nM; in the data set with Aβtotal (setting [2]), > 10000 nM.

Regarding `COc1c(C#N)ccc2[nH]c(-c3cn4c(n3)C(c3ccccc3Cl)OCC4)cc12` (stereo not drawn) [Compound 49, 2-[8-(2-chlorophenyl)-5,6-dihydro-8H-imidazo[2,1-c][1,4]oxazin-2-yl]-4-methoxy-1H-indole-5-carbonitrile], the IC50 with Aβ42 (setting [2]) is 58 nM; in the data set with Aβtotal (setting [1]), > 10000 nM.

Regarding `COc1c(C#N)ccc2[nH]c(-c3cn4c(n3)C(c3cccc(F)c3C)OCC4)cc12` (stereo not drawn) [Compound 42, 2-[8-(3-fluoro-2-methylphenyl)-5,6-dihydro-8H-imidazo[2,1-c][1,4]oxazin-2-yl]-4-methoxy-1H-indole-5-carbonitrile], the IC50 with Aβ42 (setting [2]) was 468 nM; in the data set with Aβtotal (setting [2]), > 10000 nM.

Regarding `COc1c(C#N)ccc2[nH]c(-c3cn4c(n3)COCC4(C)c3cc(C(F)(F)F)ccc3F)cc12` (stereo not drawn) [Compound 183, 2-[5-[2-fluoro-5-(trifluoromethyl)phenyl]-5,6-dihydro-5-methyl-8H-imidazo[2,1-c][1,4]oxazin-2-yl]-4-methoxy-1H-indole-5-carbonitrile], the IC50 was 2880 nM in the data set on Aβ42 (setting [1]) and > 10000 nM in the data set on Aβtotal (setting [1]).

As for `COc1c(C#N)ccc2[nH]c(-c3nc4n(n3)CCOC4c3cc(C(F)(F)F)ccc3F)cc12` (single isomer, unassigned) [Compound 160, 2-[8-[2-fluoro-5-(trifluoromethyl)phenyl]-5,6-dihydro-8H-[1,2,4]triazolo[5,1-c][1,4]oxazin-2-yl]-4-methoxy-1H-indole-5-carbonitrile], the IC50 in the data set on Aβ42 (setting [2]) is 5130 nM; with Aβtotal (setting [1]), > 10000 nM.

For the compound `Cc1cc(F)ccc1C1CCCn2cc(-c3cc4nc(-c5cnn(C)c5)ccc4[nH]3)nc21` (stereo not drawn) [Compound 86, 2-[8-(4-fluoro-2-methylphenyl)-5,6,7,8-tetrahydroimidazo[1,2-a]pyridin-2-yl]-5-(1-methyl-1H-pyrazol-4-yl)-1H-pyrrolo[3,2-b]pyridine], the 50% inhibitory concentration (IC50) with Aβ42 (setting [2]) was 112 nM; with Aβtotal (setting [2]) it was > 10000 nM.

With `Cc1cn(-c2ccc3[nH]c(-c4nc5n(n4)CCCC5c4ccc(F)cc4C)nc3c2)cn1` (stereo not drawn) [Compound 179, 8-(4-fluoro-2-methylphenyl)-5,6,7,8-tetrahydro-2-[5-(4-methyl-1H-imidazol-1-yl)-1H-benzimidazol-2-yl]-[1,2,4]triazolo[1,5-a]pyridine], the figures for the IC50 with Aβ42 (setting [2]) and with Aβtotal (setting [1]) were 407 nM and > 10000 nM, respectively.

Take `COc1c(C#N)ccc2[nH]c(-c3nc4n(n3)CCOC4c3c(F)cccc3Cl)cc12` (single isomer, unassigned) [Compound 118, 2-[8-(2-chloro-6-fluorophenyl)-5,6-dihydro-8H-[1,2,4]triazolo[5,1-c][1,4]oxazin-2-yl]-4-methoxy-1H-indole-5-carbonitrile]: the results for the IC50 with Aβ42 (setting [2]) and in the data set on Aβtotal (setting [2]) were 3800 nM and > 10000 nM, respectively.

As for `Cc1cc(F)ccc1C1OCCn2nc(-c3cc4c(OC(C)C)c(C#N)ccc4[nH]3)nc21` (single isomer, unassigned) [Compound 173, 2-[8-(4-fluoro-2-methylphenyl)-5,6-dihydro-8H-[1,2,4]triazolo[5,1-c][1,4]oxazin-2-yl]-4-(1-methylethoxy)-1H-indole-5-carbonitrile], the values for the half-inhibitory concentration (IC50) in the data set with Aβ42 (setting [2]) and in the data set on Aβtotal (setting [1]) were 251 nM and > 10000 nM, respectively.

On to `COc1c(C#N)ccc2[nH]c(-c3nc4n(n3)CCOC4c3cccc(C)c3F)cc12` (single isomer, unassigned) [Compound 149, 2-[8-(2-fluoro-3-methylphenyl)-5,6-dihydro-8H-[1,2,4]triazolo[5,1-c][1,4]oxazin-2-yl]-4-methoxy-1H-indole-5-carbonitrile], for which the values for the concentration for half-maximal inhibition (IC50) in the data set on Aβ42 (setting [2]) and in the data set on Aβtotal (setting [2]) were 1860 nM and > 10000 nM, respectively.

As to `COc1c(C#N)ccc2[nH]c(-c3nc4n(n3)CCCOC4c3ccc(F)cc3C)cc12` (stereo not drawn) [Compound 54, 2-[9-(4-fluoro-2-methylphenyl)-6,7-dihydro-5H,9H-[1,2,4]triazolo[5,1-c][1,4]oxazepin-2-yl]-4-methoxy-1H-indole-5-carbonitrile], the figures for the IC50 in the data set on Aβ42 (setting [2]) and in the data set on Aβtotal (setting [2]) were 2340 nM and > 10000 nM, respectively.

Consider `COc1c(C#N)ccc2[nH]c(-c3cn4c(n3)C(c3ccc(F)c(Cl)c3)OCC4)cc12` (stereo not drawn) [Compound 143, 2-[8-(3-chloro-4-fluorophenyl)-5,6-dihydro-8H-imidazo[2,1-c][1,4]oxazin-2-yl]-4-methoxy-1H-indole-5-carbonitrile], for which the IC50 with Aβ42 (setting [2]) was 186 nM; with Aβtotal (setting [1]), > 10000 nM.

On to `COCc1ccccc1C1OCCn2cc(-c3cc4c(OC)c(C#N)ccc4[nH]3)nc21` (stereo not drawn) [Compound 120, 2-[5,6-dihydro-8-[2-(methoxymethyl)phenyl]-8H-imidazo[2,1-c][1,4]oxazin-2-yl]-4-methoxy-1H-indole-5-carbonitrile], for which the IC50 in the data set with Aβ42 (setting [2]) is 123 nM; in the data set on Aβtotal (setting [1]), > 10000 nM.

In the case of `N#Cc1ccc2[nH]c(-c3nc4n(n3)CCOC4c3ccccc3C(F)(F)F)cc2c1` (stereo not drawn) [Compound 35, 2-[5,6-dihydro-8-[2-(trifluoromethyl)phenyl]-8H-[1,2,4]triazolo[5,1-c][1,4]oxazin-2-yl]-1H-indole-5-carbonitrile], the IC50 with Aβ42 (setting [1]) was 363 nM; in the data set with Aβtotal (setting [1]) it was > 10000 nM.

Regarding `Cc1cc(-c2ccc3[nH]c(-c4nc5n(n4)CCCC5c4ccc(F)cc4C)nc3c2)ccn1` (single isomer, unassigned) [Compound 174, 8-(4-fluoro-2-methylphenyl)-5,6,7,8-tetrahydro-2-[5-(2-methyl-4-pyridinyl)-1H-benzimidazol-2-yl]-[1,2,4]triazolo[1,5-a]pyridine], the IC50 was 110 nM with Aβ42 (setting [2]) and > 10000 nM with Aβtotal (setting [1]).

Turning to `COCCOc1c(C#N)ccc2[nH]c(-c3cn4c(n3)C(c3ccc(F)cc3C)OCC4)cc12` (stereo not drawn) [Compound 167, 2-[8-(4-fluoro-2-methylphenyl)-5,6-dihydro-8H-imidazo[2,1-c][1,4]oxazin-2-yl]-4-(2-methoxyethoxy)-1H-indole-5-carbonitrile], the IC50 in the data set with Aβ42 (setting [1]) is 257 nM; in the data set on Aβtotal (setting [1]), > 10000 nM.

`COc1c(C#N)ccc2[nH]c(-c3cn4c(n3)COCC4c3ccccc3)cc12` (stereo not drawn) [Compound 184, 2-(5,6-dihydro-5-phenyl-8H-imidazo[2,1-c][1,4]oxazin-2-yl)-4-methoxy-1H-indole-5-carbonitrile]: the half-inhibitory concentration (IC50) with Aβ42 (setting [1]) turned out to be 3090 nM; with Aβtotal (setting [1]), 5370 nM.

`COc1c(C#N)ccc2[nH]c(-c3nc4n(n3)CCOC4c3ccccc3Cl)cc12` (stereo not drawn) [Compound 130, 2-[8-(2-chlorophenyl)-5,6-dihydro-8H-[1,2,4]triazolo[5,1-c][1,4]oxazin-2-yl]-4-methoxy-1H-indole-5-carbonitrile]: the figures for the half-inhibitory concentration (IC50) with Aβ42 (setting [2]) and with Aβtotal (setting [1]) were 79 nM and > 10000 nM, respectively.

Turning to `COc1c(C#N)ccc2[nH]c(-c3cn4c(n3)C(c3cc(F)ccc3C)OCC4)cc12` (stereo not drawn) [Compound 151, 2-[8-(5-fluoro-2-methylphenyl)-5,6-dihydro-8H-imidazo[2,1-c][1,4]oxazin-2-yl]-4-methoxy-1H-indole-5-carbonitrile], the IC50 with Aβ42 (setting [2]) was 54 nM; in the data set with Aβtotal (setting [1]), > 10000 nM.

`Cc1cc(F)ccc1C1OCCn2nc(-c3cc4c(OC(C)C)c(C#N)ccc4[nH]3)nc21` (stereo not drawn) [Compound 166, 2-[8-(4-fluoro-2-methylphenyl)-5,6-dihydro-8H-[1,2,4]triazolo[5,1-c][1,4]oxazin-2-yl]-4-(1-methylethoxy)-1H-indole-5-carbonitrile]: the IC50 is 347 nM with Aβ42 (setting [1]) and > 10000 nM with Aβtotal (setting [1]).

Turning to `Cc1cc(F)ccc1C1CCCn2cc(-c3cc4nc(C#N)ccc4[nH]3)nc21` (stereo not drawn) [Compound 75, 2-[8-(4-fluoro-2-methylphenyl)-5,6,7,8-tetrahydroimidazo[1,2-a]pyridin-2-yl]-1H-pyrrolo[3,2-b]pyridine-5-carbonitrile], the IC50 with Aβ42 (setting [1]) was 174 nM; in the data set on Aβtotal (setting [1]), > 10000 nM.

Turning to `COc1ccccc1C1CCCn2nc(-c3cc4cc(-n5cnc(C)c5)ccc4[nH]3)nc21` (single isomer, unassigned) [Compound 81, 5,6,7,8-tetrahydro-8-(2-methoxyphenyl)-2-[5-(4-methyl-1H-imidazol-1-yl)-1H-indol-2-yl]-[1,2,4]triazolo[1,5-a]pyridine], the IC50 was 74 nM with Aβ42 (setting [2]) and > 10000 nM in the data set with Aβtotal (setting [2]).
